One data set has as its target T1, ZIKV NS5 MTase (Zika virus, UniProt A0A024B7W1).
T1 construct: KJ776791.2, aa 4–278; His6 (N); made in house; host or cells: Escherichia coli T7 Express Iq
The data set can be described thus: ZIKV NS5 MTase radioactive filter-binding assay (2′-O-MTase activity). It is filed as biochemical. Conditions: at least two experiments, read-out: IC50 (half-maximal inhibitory enzymatic concentration). The procedure: Selected compounds were evaluated in enzymatic inhibition assays against both ZIKV and DENV 2′-O-MTase activity (For details, see Figure S3 in Supplementary Materials). The screening of compounds at a concentration of 50 µM highlighted a higher inhibitory activity against ZIKV MTase. We thus focused our efforts on ZIKV and determined the IC50 values against ZIKV MTase.
Expression and purification of ZIKV NS5 MTase: The coding sequence of the ZIKV NS5 MTase domain (strain H/PF/2013, GenBank accession no. KJ776791.2, aa 4–278) was synthesized by Genscript and cloned into a pQE30 vector (Qiagen, Hilden, Germany) with an N-terminal His6 tag. The protein was expressed and purified following the procedures described in Coutard et al..
Briefly, after expression in Escherichia coli T7 Express Iq (New England BioLabs) in Terrific Broth at 17 °C overnight, bacterial pellets were resuspended in lysis buffer (50 mM Tris-HCl [pH 8], 300 mM NaCl, 5% glycerol, 0.1% Triton, 10 μg/mL DNase I, 2 tablets of EDTA-free antiprotease cocktail [Roche] and 0.25 mg/mL lysozyme). Following cell lysis and clarification, the protein was purified by affinity on immobilized metal affinity chromatography (IMAC, His prep column [GE Healthcare]), followed by size exclusion chromatography (Superdex S75 HR 16/20 column [GE Healthcare]). The NS5-MTase was concentrated and stored at −20 °C after adding glycerol to a final concentration of 40%.
Filter-binding assay: The transfer of tritiated methyl from ^[3H]SAM onto RNA substrate was monitored by a filter-binding assay (FBA), performed according to the method described previously. FBA was carried out in a reaction mixture [40 mM Tris-HCl (pH 8.0), 1 mM DTT, 2 μM SAM, and 0.1 μM 3H-SAM (Perkin Elmer, Shelton, CT, USA)] in the presence of 0.7 μM synthetic ^7mGpppAC4 and ZIKV NS5 MTase (500 nM). The enzyme was first mixed with an increasing concentration of inhibitors, previously suspended in dimethyl sulfoxide (DMSO), before the addition of RNA substrate and SAM, and then incubated at 30 °C. The final DMSO concentration in reactions was 5%. Reaction mixtures were stopped after 30 min incubation by their 10-fold dilution in ice-cold water. Samples were transferred to diethylaminoethyl (DEAE) filtermat (Perkin Elmer, Shelton, CT, USA) using a Filtermat Harvester (Packard Instruments, Meriden, CT, USA). The RNA-retaining mats were washed twice with 10 mM ammonium formate pH 8.0, twice with water, and once with ethanol before drying. They were soaked with scintillation fluid (Perkin Elmer, Shelton, CT, USA), and 3H-methyl transfer to the RNA substrates was determined using a Wallac MicroBeta TriLux Liquid Scintillation Counter (Perkin Elmer, Shelton, CT, USA). For IC50 measurements, values were normalized and fitted with Prism (GraphPad software version 10.1.1) using the following equation: Y = 100/(1 + ((X/IC50) ^ Hillslope)).

Data set [1] is described as follows: Stability test in human plasma. The class given is in vitro ADME. To be noted: pH 7.4, 37 °C, up to 24 h, read-out: Plasma Stab. (T1/2, h ± SD) (converted). The procedure: Finally, compounds were incubated in human plasma at 37 °C for 24 h. […] Taken together, stability studies confirmed that the series is suitable for further development.
For the ADME property determination, an Agilent 1260 Infinity HPLC-DAD interfaced with an Agilent MSD 6130 (Agilent Technologies, Palo Alto, CA, USA) was used. Chromatographic conditions were optimized using a Phenomenex Kinetex C18-100 Å column (150 × 4.6 mm) with 5 µm particle size and gradient elution with a binary solution (eluent A: H2O; eluent B: ACN; both eluents were acidified with formic acid 0.1% v/v) at room temperature. The LC analyses started with 5% of B (from t = 0 to t = 1 min), then B was increased to 95% (from t = 1 to t = 10 min) and then kept at 95% (from t = 10 to t = 19 min) and finally returned to initial conditions in 1.0 min. The flow rate was 0.6 mL/min and the injection volume was 10 µL.
A stock solution of the target compound in DMSO (2 mM) was incubated in a test tube with pooled human plasma (55.7 mg protein/mL) and HEPES buffer (25 mM, 140 mM NaCl pH 7.4) up to a final volume of 1.0 mL. The mixture was incubated at 37 °C, and at set time points (0.0, 0.5, 1, 4, 8, 24 h), samples of 50 µL were taken, mixed with 400 µL of ACN to stop the reaction of plasmatic esterases, and centrifuged at 5000 rpm for 15 min. The supernatant was removed and analyzed using the LC-UV/MS method previously described. The half-life (t½) was calculated according to the following equation: t½=ln 2/k where k represents the substrate elimination constant. For each compound, the determination was performed in three independent experiments.

Data on 1 molecule can be found in publication PMC10888717, “Identification of Novel Non-Nucleoside Inhibitors of Zika Virus NS5 Protein Targeting MTase Activity” (International Journal of Molecular Sciences, 2024).

A value given as a limit tells only on which side of the number the result lay.

T1 sequence (A0A024B7W1 2524-2798): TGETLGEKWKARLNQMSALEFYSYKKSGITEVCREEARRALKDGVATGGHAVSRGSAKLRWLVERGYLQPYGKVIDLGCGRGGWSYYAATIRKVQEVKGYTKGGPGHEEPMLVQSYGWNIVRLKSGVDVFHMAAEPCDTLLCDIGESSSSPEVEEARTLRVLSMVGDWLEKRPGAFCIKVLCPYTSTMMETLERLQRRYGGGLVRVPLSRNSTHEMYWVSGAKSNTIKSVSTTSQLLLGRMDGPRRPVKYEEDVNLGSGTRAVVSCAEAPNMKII

On to `CN1C(=O)c2ccc(NC(=O)c3cc4cccc(Cl)c4s3)cc2C1=O` [Compound 17], for which, on ZIKV NS5 MTase, the IC50 turned out to be 11.4 µM. Besides, in data set [1], the half-life is greater than 24 h.
